Data as given in paper PMC5072831, “Novel Nuclear Factor-KappaB Targeting Peptide Suppresses β-Amyloid Induced Inflammatory and Apoptotic Responses in Neuronal Cells” (PLoS ONE, 2016).

Assays:
NF-κΒ p65 = settings: ref [61]; cited from earlier work
Source text: There is increasing interest in developing disease modifying agents for neurodegenerative diseases based on molecular pathogenesis. […] As opposed to high throughput screening, computational design of interface peptide mimics followed by functional evaluation represe ...

Caspase-3 mRNA = Caspase-3 mRNA in HFB by quantitative real-time PCR; format: cell-based, human; settings: Aβ1–42 exposure alone
Protocol: (§1) Primary HFB exposed to Aβ1–42 and treated with GA or CP as above was harvested at the end of 24h. Total cellular RNA was isolated using Qiagen kit (Invitrogen, Carlsbad, CA) following manufacturer's protocol. Total RNA (2–4 μg) was reverse transcribed using iScript cDNA synthesis kit (Biorad, CA). The concentration of the cDNA was measured at 260 and 280 nm by the Gensys5 model UV-visible spectrophotometer (Thermoelectronic Corp.,CA). Real-time PCR was performed by using the SYBR green/ROX qPCR master mix (SABiosciences, Frederick, MD) according to manufacturer's recommendations on the CFX96 Touch™ Real-Time PCR Detection System (Biorad laboratories, Hercules, California, USA). Each reaction contains 2×12.5 μl of SYBR green Master Mix, 1 μl of 10 μM of primers and 50 ng of the cDNA, to a total volume of 25 μl. The thermal cycling conditions included an initial denaturation step at 50°C for 2 min, 95°C for 3 min, 39 cycles at 95°C for 30 s, annealing temperature at 54°C for 30 s and extension at 72°C for 30s. The primers are F-GAPDH-5′-[…]-3′; R-GAPDH:5′-G […]-3′(102bp); F-IL-1β:5′-[…]-3′; R-IL-1β:5′[…]-3′ (89 bp); F-IL-6:5′-[…] […] The difference in each gene-specific threshold between the samples from vehicle treated and GA or CP treated cells was determined to obtain the relative change in the specific mRNA. The magnitude of change in the mRNA was expressed as 2^ΔΔCt. […]

IL-1β mRNA = IL-1β mRNA in HFB by quantitative real-time PCR; format: cell-based, human; settings: Aβ1–42 exposure alone
Protocol: as §1

nuclear p50 = assay: Nuclear p50 in HFB; format: cell-based, human; settings: HFB exposed to Aβ1–42
Protocol: (§2) Primary HFB exposed to Aβ1–42 and treated with GA or CP as above was harvested at the end of 4h. Nuclear and cytoplasmic fractions were extracted using the CelLytic™ NuCLEAR™ Extraction Kit (Sigma) following manufacturer’s protocol. Five microgram of nuclear extracts was incubated in a 96-well plate coated with oligonucleotides containing the NF-κΒ consensus nucleotide sequence (5’-[…]-3’). The activated NF-κΒ bound to DNA was detected by anti-p65 antibody followed by a peroxidase coupled secondary antibody and substrate using the TransAM kit protocol (Active Motif). Nuclear extracts of Raji cells was used as the positive control.
We measured nuclear p65 using activated NF-κΒ specific ELISA and calculated the p65 DNA binding activity as the ratio of absorbance form Aβ1–42 stimulated cells to that of unstimulated cells. […] There was a trend towards decreased nuclear p65 in Aβ1–42 exposed cells treated with GA-1 (6.13+/-1.3) and GA-2 (6.7+/-1.5) as compared to untreated cells (14.75+/-3.5). Nuclear p65 of Aβ1–42 exposed cells treated with CP-1, CP-2 and CP-3 measured 6.8+/-3.9, 10.2+/-2.9 and 10.1+/-3.7 respectively (Fig 6H). […] Although we observed slightly elevated nuclear p50 in Aβ1–42 (6.15+/-1.2) than in unexposed cells (0.5+/-2.7), no difference was observed between GA peptide of CP treated cells and untreated cells (data not shown).

[1] = system: human fetal brain cells (HFB); assay: CTG viability in human primary mixed brain cultures (HFB); format: cell-based
Protocol: HFB were prepared and cultured as described (S1 and S2 Docs). Briefly, cells were cultured in Neurobasal medium (Invitrogen) without phenol red supplemented with 1xB27, […], 1xantibiotic cocktail, 5ng/mL recombinant fibroblast growth factor 2 (bFGF) (Invitrogen), and 2μL/mL Normocin (InVivoGen, San Diego, CA, USA). Cells were counted and seeded onto poly-D-lysine (Sigma-Aldrich) coated 24-well plates (Corning, Lowell, MA, USA) at 1.5x10^5 cells per well and maintained at 37°C in a 5% CO2 incubator. Half media changes were performed every 4th day of culture and morphology was monitored via phase contrast microscopy. Culture medium was removed from cells on day 17 (DIV17) and replaced with Neurobasal medium with B27. […] Cells and conditioned media were harvested and stored for further analysis. Relative ATP concentration was measured using the CTG kit (Promega). Data is presented as ΔRLU = RLU of Aβ1–42 exposed cells–RLU unexposed cells. Conditioned media collected were assessed for specific cytokines using the OptEIA kits (BD Biosciences).

Caspase-9 mRNA = Caspase-9 mRNA in HFB by quantitative real-time PCR; format: cell-based, human; settings: Aβ1–42 exposure alone
Protocol: as §1

IL-6 mRNA = IL-6 mRNA in HFB by quantitative real-time PCR; format: cell-based, human; settings: Aβ1–42 exposure alone
Protocol: as §1

[2] = system: activated p65 NF-κΒ subunit; assay: NF-κB assay, nuclear p65 DNA binding (TransAM) in HFB; format: cell-based, human; settings: HFB exposed to Aβ1–42, 4 h, 5μg nuclear extract, TransAM ELISA; average+/-SD from two experiments
Protocol: as §2
Fig 6 Effect of GILZ analog (GA) treatment on human fetal brain cells (HFB): (A,B): Select GA decrease metabolic activity in Aβ1–42 exposed HFB. […] Cytoplasmic extracts of cells collected at 24h was assessed for viability by CTG assay. […] HFB cells were cultured as above and culture medium collected at 24hrs was assessed for pro-inflammatory (IL-1β, IL-6 and IL-17) (C, D, E and F) and anti-inflammatory (TGF-β) (G) cytokines. […] The p65 DNA binding activity was calculated as the ratio of absorbance from Aβ1–42 stimulated cells to that of unstimulated cells. […]
We measured nuclear p65 using activated NF-κΒ specific ELISA and calculated the p65 DNA binding activity as the ratio of absorbance form Aβ1–42 stimulated cells to that of unstimulated cells. […]

caspase-3 = settings: ref [70], [71]; cited from earlier work
Source text: Multiple caspases including caspase-3 and caspase-9 are transcriptionally elevated in AD [66, 67].

[3] = ref [67]; cited from earlier work

Oc1ccc(/C=C/c2cc(O)cc(O)c2)cc1 [resveratrol]
effect in AD models (NF-κΒ p65): interact with NF-κΒ p65, suppress inflammation and cytotoxicity in AD models

Aβ1–42: Purified Aβ1–42 peptide (American Peptide company), used as stimulus
caspase 3 mRNA (in words) (Caspase-3 mRNA): upregulation of mRNA for caspase 3
IL-1β mRNA (in words) (IL-1β mRNA): upregulation of mRNA for IL-1β
nuclear p50 (nuclear p50): 6.15+/-1.2
average RLU of cultures exposed to Aβ1–42 ([1]; lower end over different experiments): 6067.25+/-903.05
average RLU of cultures exposed to Aβ1–42 ([1]; upper end over different experiments): 11574.25+/- 4139.3
caspase 9 mRNA (in words) (Caspase-9 mRNA): upregulation of mRNA for caspase 3 and caspase 9
IL-6 mRNA (in words) (IL-6 mRNA): upregulation of mRNA for IL-1β and IL-6
nuclear p65 DNA binding activity (ratio of absorbance, Aβ1–42 stimulated / unstimulated) [2]: 14.75+/-3.5

COc1ccc2[nH]cc(CCNC(C)=O)c2c1 [melatonin]
effect on Aβ-induced caspase-3 activity (caspase-3): suppress Aβ-induced caspase-3 activity

oncocin
influx into CNS and distribution in brain parenchyma [3]: significant influx into CNS and distribution within the brain parenchyma

C=C1C(=O)[C@]23C[C@H]1C[C@H](OC(C)=O)[C@H]2[C@]1(C)[C@@H](OC(C)=O)C[C@H](O)C(C)(C)[C@H]1C(=O)[C@@H]3OC(C)=O [adenanthin]
effect in AD models (NF-κΒ p65): interact with NF-κΒ p65, suppress inflammation and cytotoxicity in AD models
